In the METLIN SMRT retention time set (Domingo-Almenara et al. 2019) one finds RP-LC retention time data, which are given here for 79 compounds.

This series can be described thus: gradient 5% acetonitrile 3 min, to 50% in 2 min, to 85% in 15 min, held 3 min, 100 µL/min. To be noted: column: Zorbax Extend-C18 2.1 x 50 mm; eluents: water / acetonitrile, 0.1% formic acid. Summed up: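 Standards, all pure, were combined into mixtures of ~100 molecules and run at 100 μL/min on a Zorbax Extend-C18 column (2.1 × 50 mm, 1.8 μm) with water and acetonitrile, each containing 0.1% formic acid. A coupled quadrupole time-of-flight mass spectrometer operated in positive and negative ionization mode. Retention time values come from computationally picked adduct peaks, each inspected manually.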
`COc1cc(NC(=O)NC(C(=O)N2CCc3ccccc32)C(C)C)cc(OC)c1` (centres undefined): the RP-LC retention time amounted to 982 s.
The same measure for `Cc1ccc(S(=O)(=O)N2CCC3(CC2)NCCN=C3NCc2ccccc2F)cc1`: 709 s; for `COc1ccc(NC(=O)c2c(C)oc3nc(C)nc(N4CCOCC4)c23)cc1`: 706 s.
The same measure for `COCC(C)(O)CNC(=O)c1cn(C)nc1OC` (centres undefined): 561 s; for `CC(C)CCNC(=O)c1cn2ccccc2n1`: 656 s.
As to `Cc1[nH]c2ccccc2c1C(Nc1nc2ccccc2s1)c1ccccn1` (centres undefined), the RP-LC retention time turned out to be 703 s.
`O=C(Nc1cc(-c2cccc(F)c2)no1)C1CCCN(c2ncnc3c2nc2n3CCCCC2)C1` (centres undefined) came in with an RP-LC retention time of 991 s.
For `CCn1ccc2c(cc(C(=O)Nc3ccc(C)c(Cl)c3)n2C)c1=O`, the RP-LC retention time is 907 s.
The same measure for `CC1(C)C(=O)NCCN1C(=O)c1cccc(Cl)c1`: 637 s; for `COCC(=O)N(C1CCOCC1)C1CCN(S(=O)(=O)c2ccccc2F)CC1`: 740 s.
To `O=C(Cn1cccc(-c2nc(-c3ccc(Cl)cc3)no2)c1=O)Nc1ccc2c(c1)OCO2` belongs 916 s.
To `Cc1ccc(N2CCN(Cc3nc4nc(C)cc(N5CCCC5)n4n3)CC2)cc1` belongs 639 s; to `CCN(CC)C(=O)c1cc(=O)[nH]c2ccccc12`, 624 s.
In turn, `COc1ccc(CC(=O)NC2CCN(c3cc(-c4ccc(F)cc4)[nH]n3)C2)cc1OC` (centres undefined) returned an RP-LC retention time of 670 s.
The same measure for `Cc1cccc(CN2CCn3c(nnc3[C@@H]3C[C@@H](O)CN3C)C2)c1`: 590 s; for `Cc1noc([C@@H]2CN(C(=O)c3ccc(Cn4ccnc4)o3)C[C@H]2C(N)=O)n1`: 538 s.
In turn, `Cc1ccc(C)c(-c2cc3c4nn(CC(=O)NC(C)C)c(=O)n4ccn3n2)c1` gave an RP-LC retention time of 856 s.
On to `O=S(=O)(NCC(O)c1ccc(C(F)(F)F)cc1)c1ccc2c(c1)OCCO2` (centres undefined), for which the RP-LC retention time came to 817 s.
Regarding `COC(=O)c1cccc(Nc2c(-c3ccccc3)nc3cnccn23)c1`, the RP-LC retention time is 834 s.
As to `Cc1ccc(F)cc1NS(=O)(=O)c1ccc(-c2nnc(C3CCC3)o2)o1`, the RP-LC retention time is 931 s.
The same measure for `Cn1c(C2CCN(C(=O)Nc3ccc(Br)cc3F)CC2)cc(=O)n2nccc12`: 694 s.
To `CCCNc1cc(N2CCCC(CCC(=O)NCC3CCCO3)C2)ncn1` (centres undefined) belongs 608 s; to `CC(C)Oc1ccc(-c2noc(-c3nn(-c4cccc(F)c4)ccc3=O)n2)cc1`, 1010 s; to `CC1(C)C(=O)N(CCN2CCC(C(=O)c3ccc(F)cc3)CC2)c2ccccc21`, 755 s.
The same measure for `Cn1c(=O)sc2cc(S(=O)(=O)N3CCC(C(=O)NCc4cccs4)CC3)ccc21`: 788 s; for `O=C1CCCC(=O)N1CCS(=O)(=O)N1CCC(c2nnc(-c3ccco3)s2)CC1`: 671 s; for `Cc1ccc(CN2CCN(CC(C)C(=O)NCc3cc(F)ccc3F)C(=O)C2=O)cc1` (centres undefined): 765 s.
Turning to `O=C(CC(F)(F)F)N1CCC(c2noc(-c3cccnc3)n2)C1` (centres undefined), the RP-LC retention time turned out to be 643 s.
Consider `Cc1sc(NC(=O)C2CCCCC2)nc1-c1ccc2c(c1)N(C)C(=O)CO2`, for which the RP-LC retention time was found to be 1040 s.
Take `O=C1C2N=NN(Cc3nc(-c4ccccc4)no3)C2C(=O)N1c1ccccc1` (centres undefined): the RP-LC retention time stood at 906 s.
Consider `O=C(c1ccc(Br)o1)N1CCCC(c2nnc(-c3ccccc3)o2)C1` (centres undefined), for which the RP-LC retention time amounted to 852 s.
To `CCN(CC)C(=O)c1ccc2c(c1)N(CC(=O)NCc1ccco1)C(=O)CO2` belongs 652 s; to `CC(C)C(=O)NC(C)c1nc(-c2ccccc2Cl)no1` (centres undefined), 834 s; to `O=C(Nc1ccc(S(=O)(=O)N2CCCCC2)cc1)c1cc(-c2ccccc2)on1`, 598 s.
To `COc1ccc(NC(=O)N2CCCC2c2nc(-c3cccc(C)c3)no2)cc1` (centres undefined) belongs 827 s; to `CC(=O)N[C@@H](Cc1c[nH]c2ccccc12)C(=O)OCc1cc(C(F)(F)F)cc(C(F)(F)F)c1`, 1100 s; to `CC(NC(=O)c1ccco1)c1nc(-c2ccc(N3CCOCC3)cc2)no1` (centres undefined), 757 s.
To `CN(C)C[C@@H]1CN(S(C)(=O)=O)C[C@H]1NC(=O)COc1ccc(Cl)cc1` belongs 629 s; to `Cc1ccc(N2C(=O)CN(S(C)(=O)=O)CC2(C)C(=O)NC2CCCCCCC2)cc1Cl` (centres undefined), 980 s.
`CCn1ccc2cc(S(=O)(=O)N3CCCC(C(=O)NC4CCCCCC4)C3)ccc21` (centres undefined) registered an RP-LC retention time of 1080 s.
The same measure for `CCc1cccc(NC(=O)C2CCN(S(=O)(=O)c3cc(C(=O)N4CCCC4)n(C)c3)CC2)c1`: 872 s.
In turn, `CC1(C(=O)NC2CCCCCC2)Cn2c(cc3occc32)C(=O)N1Cc1cccnc1` (centres undefined) yielded an RP-LC retention time of 661 s.
`CCNC(=O)c1n[nH]c2c1CCCC2` displayed an RP-LC retention time of 641 s.
As for `CCN(CC)CCNC(=O)c1ccc(-c2ccccc2)cc1`, the RP-LC retention time is 587 s.
`O=C(Cn1cnc2nc(N3CCCC(C(=O)NC4CC4)C3)sc2c1=O)NCc1ccc(F)cc1` (centres undefined) had an RP-LC retention time of 669 s.
The same measure for `CNC(=O)c1cnn(-c2cccc(F)c2)c1-n1cccc1`: 777 s.
To `O=C(Nc1ccc(-c2cn3cccnc3n2)cc1)c1cccc(Cl)c1` belongs 664 s; to `Cc1ccc(C)c(CNC(=O)c2nc3cccnc3n(CC(C)C)c2=O)c1`, 1060 s; to `CCC(=O)NCc1nc2c(n1CC)CN(C(=O)c1ccccc1C(F)(F)F)CC2`, 594 s.
To `O=c1n(Cc2ccccc2F)nc2ccc(S(=O)(=O)N3CCOCC3)cn12` belongs 788 s; to `O=C(Nc1nccs1)c1ccc2c(c1)CCCC2`, 869 s.
`Cc1noc(C)c1CCC(=O)N1CCCCC1c1nncn1C` (centres undefined) came in with an RP-LC retention time of 607 s.
The same measure for `COc1ccc(-c2cn3c(CC(=O)N(Cc4cccs4)C4CCCC4)csc3n2)cc1OC`: 875 s.
Consider `CCCN(C)c1nccn2c(=O)n(CC(=O)Nc3ccc(C)cc3F)nc12`, for which the RP-LC retention time turned out to be 719 s.
For `CCOc1ccc(CC(=O)Nc2ccc(-c3nc(-c4ccccc4)co3)cc2)cc1OCC`, the RP-LC retention time worked out at 1150 s.
With `CCC(=O)Nc1ccc2nc(N3CCN(CC(=O)Nc4c(C)cccc4C)CC3)cc(C(=O)O)c2c1`, the RP-LC retention time was determined as 594 s.
In the case of `O=C(NCc1cccnc1)C1c2ccccc2C(=O)N(Cc2ccccc2)C12CCCC2` (centres undefined), the RP-LC retention time turned out to be 649 s.
To `CCn1cc(-c2nc(CC(=O)Nc3cc(F)ccc3F)cs2)c2cccnc21` belongs 1020 s.
`O=C(NCCn1ncccc1=O)c1ccc(OCc2nc(-c3ccco3)cs2)cc1` showed an RP-LC retention time of 690 s.
The same measure for `O=C(NCCc1c[nH]c2ccccc12)C1CCN(c2nnc(N3CCCCC3=O)s2)CC1`: 709 s; for `COc1cccc(NC(=O)Cn2nc3c(Oc4ccccc4C)nccn3c2=O)c1`: 866 s; for `CCC(C)NC(=O)c1cc2c(s1)CCN(C(=O)c1ccc(F)cc1)C2` (centres undefined): 804 s.
The compound `O=C(NCc1cccnc1)C1CCN(C(=O)c2ncn3c2COC(c2ccccc2)C3)CC1` (centres undefined) came in with an RP-LC retention time of 568 s.
The same measure for `COc1ccccc1-c1noc(-c2nn(-c3ccc(Cl)cc3)ccc2=O)n1`: 832 s.
To `Cc1ccc(-c2cc(C(=O)N3CCC(NC(=O)Cc4cccs4)CC3)[nH]n2)c(C)c1` belongs 776 s; to `CC(CCc1ccco1)NC(=O)C1CCN(c2nc(-c3ccc(Cl)cc3)no2)CC1` (centres undefined), 1080 s.
With `Cc1nc(-c2ccncc2)nc2c1CCC(=O)N2C1CCCC1`, the RP-LC retention time was 773 s.
The same measure for `CCCCn1cnc2c(-c3ccccc3)cn(CC(=O)N3CCCC3)c2c1=O`: 836 s; for `Cc1ccccc1-c1noc(Cn2c(=O)n(C(C)C)c(=O)c3ccccc32)n1`: 1160 s; for `COCCCN(CC(=O)N1CCc2sccc2C1COc1ccc(Cl)cc1)C(=O)NC(C)C` (centres undefined): 996 s.
Compound `Cc1ccc(C)c(NC(=O)C2CCCN(S(=O)(=O)c3c[nH]c(C(=O)N4CCCC4)c3)C2)c1` (centres undefined) displayed an RP-LC retention time of 821 s.
To `COc1ccc(CN2C[C@@H]3C(=O)N(C)C(=O)[C@@H]3C2)cc1OC` belongs 566 s; to `Cc1ccc(NC(=O)NCC2(N3CCOCC3)CCOC2)c(C)c1` (centres undefined), 597 s.
The same measure for `O=C(NC1(c2nc(-c3ccccc3)no2)CCCCC1)c1ccc2c(c1)OCO2`: 1120 s.
`O=C(CCc1c(-c2ccccc2)nc2ccccn12)NC1CC1`: the RP-LC retention time came to 561 s.
`O=C(c1nc(-c2ccnc(N3CCCCC3)c2)no1)N1CCCC1` gave an RP-LC retention time of 673 s.
On to `COCCN1C(=O)c2ccccc2C(C(=O)NCCCN2CCCCC2C)C1c1cccs1` (centres undefined), for which the RP-LC retention time was 624 s.
`Cc1ccc(S(=O)(=O)N2CCOCC2)cc1-c1nnc(-c2ccc(F)cc2)o1` yielded an RP-LC retention time of 958 s.
The same measure for `O=C(NC1CC1)[C@@H]1C[C@H](Oc2ccccc2)CN1C(=O)Cn1c(=O)oc2ccccc21`: 786 s.
